Measurements from patent publication US20140018431A1 (priority 2007, published 2014).

Experiments:
[1] = system: airway smooth muscle; conditions: literature (Belvisi, 1998); cited from earlier work
[2] = system: PDGF (platelet-derived growth factor); assay: PDGF biomarker, patients with PAH, 12 weeks of treatment; format: in vivo, human; conditions: treatment for 12 weeks
Method: (§1) In addition, treatment with treprostinil is shown to have positive outcome in the six minute walk test described above.
(§2) 44 patients with PAH received study drug (Remodulin or placebo). 30 patients received Remodulin and 14 received placebo. A 12-week trial was conducted. The mean dose of Remodulin received was 72.5 ng/kg/min at Week 12 (compared to 80.0 ng/kg/min placebo-equivalent). Remodulin produced an 93.0 meter median improvement in the six-minute walk compared to placebo, Hodges-Lehmann estimate, with a 95% CI of 7.0 to 187.0 (p=0.0077) from nonparametric ANCOVA.
(§3) Baseline patients with PAH appeared to have higher-than-normal levels of MMP-9, Ang-2, VEG-F, and PDGF (matrix metalloproteinase 9, angiopoetin-2, vascular endothelium-derived growth factor, and platelet-derived growth factor, respectively).

[3] = system: VEG-F (vascular endothelium-derived growth factor); assay: Serum VEG-F biomarker, patients with PAH, 12 weeks of treatment; format: in vivo, human; conditions: treatment for 12 weeks
Method: as §1, §2, §3

[4] = format: in vivo, human; conditions: patients with PAH, 12-week trial
Method: The effect of treprostinil (in the form of Remodulin or inhaled treprostinil) on patients is analyzed using the 6-minute walk test with Borg dyspnea score, a standard assessment of exercise capacity and breathlessness in patients with lung disease. See Guyatt, G. Sullivan, M. et al. (Canada Medical Assoc. J. Vol. 132, 1985). The Six-Minute Walk corresponds closely to the demands of everyday activity and is a safe and simple measurement of functional exercise capacity for clinical trials in patients.
The area used for the Six-Minute Walk test should be pre-measured at a minimum of 108 feet (33 meters) in length and at least 6 to 10 feet (2 to 3 meters) in width. The length should be marked with half-yard (0.5 meter) gradations. The area should be well ventilated with air temperature controlled at 20 to 23° C. ([…].).
The tester may be at the starting end of the corridor or at the midpoint of the corridor with a stop-watch. Intermittent rest periods are allowed if the patient can no longer continue. If the patient needs to rest briefly, he/she may stand or sit and then begin again when he/she is sufficiently rested but the clock will continue to run. At the end of six minutes, the tester will call “stop” while simultaneously stopping the watch and then measure the distance walked. The Borg Dyspnea Rating is then administered.
No other instruction or encouragement are given during the test. Eye contact with the patient should be avoided during the test. Following the walk, the person administering the test obtains a rating of dyspnea using the Borg Scale. The person uses the following dialogue:
“I would like to use the following scale to indicate the maximal shortness of breath you had during the walk test (indicate the Borg Scale). […]

[5] = system: MMP-9 (matrix metalloproteinase 9); assay: MMP-9 biomarker, patients with PAH, 12 weeks of treatment; format: in vivo, human; conditions: treatment for 12 weeks
Method: as §1, §2, §3
Further, there was a statistically significant correlation between the degree of decrease in Ang-2 and the degree of improvement in the six-minute walk test.

[6] = system: Ang-2 (angiopoetin-2); assay: Serum Ang-2 biomarker, patients with PAH, 12 weeks of treatment; format: in vivo, human; conditions: treatment for 12 weeks
Method: as §1, §2, §3

[7] = system: lung myeloid dendritic cells; conditions: literature (Idzko, 2007), cited from earlier work

CCCCC[C@H](O)/C=C/[C@@H]1[C@H]2C/C(=C/CCCC(=O)O)O[C@H]2C[C@H]1O [PGI2]
effect on airway smooth muscle proliferation [1]: antiproliferative effect

CCCCC[C@H](O)CC[C@@H]1[C@H]2Cc3cccc(OCC(=O)[O-])c3C[C@H]2C[C@H]1O.[Na+] [Remodulin]
PDGF [2]: strong trend toward decreased
serum VEG-F [3]: significantly decreased
median improvement in the six-minute walk compared to placebo, Hodges-Lehmann estimate ([4]; mean dose 72.5 ng/kg/min at Week 12, 95% CI of 7.0 to 187.0, p=0.0077, nonparametric ANCOVA): 93.0 meter
Borg Dyspnea score, median improvement over placebo ([4]; p=0.23): 2.0
combined ranking of 6MW/Borg Score Index ([4]; vs placebo, p=0.0023): significantly improved
degree of change in MMP-9 [5]: not significant
serum Ang-2 [6]: significantly decreased

CC#CCC(C)[C@H](O)/C=C/[C@@H]1[C@H]2C/C(=C/CCCC(=O)O)C[C@H]2C[C@H]1O (stereo partly shown) [iloprost]
anti-inflammatory effects in a mouse model of asthma [7]: anti-inflammatory effects
induction of allergen-specific Th2 response in mediastinal lymph nodes ([7]; mouse model of asthma): abolishing the induction
